Data as given in patent publication US20250041335A1, “PERCARBONATE COMPOSITIONS AND USES THEREOF” (ThermoLife International, LLC, priority 2023, published 2025).

Legend:
human subject = details: person, 2 grams oral, two 000 capsules, just before kayaking
[1] = label language of products on the market; cited from earlier work
[2] = 2 grams oral, two 000 capsules, immediately before exercise, all subjects, self-described
[3] = subject with diabetes, 2 grams oral, self-described
[4] = ingested before exercise, humans

O=C([O-])[O-].O=C([O-])[O-].OO.OO.OO.[Na+].[Na+].[Na+].[Na+] [sodium percarbonate]
endurance (human subjects; [2]): increased | lactic acid burn (human subjects; [2]): reduced | recovery during and after the session of exercise (human subjects; [2]): improved | strength (human subjects; [2]): increased | leg ache (human subjects; person, 2 grams oral before StairMaster cardio session after leg training, self-described): didn't ache as much as usual | endurance levels (human subjects; person, 2 grams oral before StairMaster cardio session after leg training, without breaking fast): definitely better than normal | breathing (human subjects; [3]): feels good | recovery between sets (human subjects; [3]): quicker | stamina/endurance through back workout and cardio (human subjects; [3]): still feel like I could keep going | detrimental gastrointestinal effects (nausea, diarrhea) (humans; doses of 2-10 grams in humans, preferably capsule form): did not result in nausea, diarrhea or any other detrimental gastrointestinal effects | endurance (humans; [4]): increased | lactic acid "burn" (humans; [4]): decreased | recovery from exercise (humans; [4]): improved | stimulatory effects like those of caffeine and other stimulants (humans; [4]): did not have any appreciable stimulatory effects | strength (humans; [4]): increased | burning in muscles (human subject): did not feel any burning in their muscles | endurance (human subject): greatly increased | effects of ingestion per product poisoning warning [1]: may cause bloating, belching, irritation of the mouth and throat, nausea, vomiting, abdominal pain and diarrhea
